Experimental data taken from the supplement of paper PMC10307832.

How the values were obtained:
Experiment in all cases: relative viability (nuclei count vs DMSO), 5 days (fraction); higher = more cells survive
[1] = compound: C1=CC2=C(C=CC(=C2)C=C3C(=O)NC(=NCC4=CC=CS4)S3)N=C1 [RO-3306] + COc1cc2c(Oc3ccc(NC(=O)C4(C(=O)Nc5ccc(F)cc5)CC4)cc3F)ccnc2cc1OCCCN1CCOCC1 [Foretinib] (partner 0.25 µM)
Procedure, shortened: (§1)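 After 5 days of treatment, lung cancer cells in 1536-well plates were fixed and stained in a single step (final 0.05% Triton X-100, 1% formaldehyde, 1 ug/ml Hoechst) and their nuclei counted on 4× images. Treatment had been applied by pin tool the day after seeding as one drug alone or as a fixed anchor-drug dose with five library-drug doses (not always all listed) in √10 steps. Relative viability is the nuclei count of treated wells divided by that of vehicle wells, and values are medians of duplicate plates.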

[2] = compound: C1=CC2=C(C=CC(=C2)C=C3C(=O)NC(=NCC4=CC=CS4)S3)N=C1 [RO-3306] + Cc1cc(Nc2cc(N3CCN(C)CC3)nc(Sc3ccc(NC(=O)C4CC4)cc3)n2)n[nH]1 [Tozasertib] (partner 0.1 µM)
Procedure, shortened: as §1

[3] = compound: O=S(=O)(c1ccccc1)N(CC(F)(F)F)c1ccc(C(O)(C(F)(F)F)C(F)(F)F)cc1 + CS(=O)(=O)CCNCc1ccc(-c2ccc3ncnc(Nc4ccc(OCc5cccc(F)c5)c(Cl)c4)c3c2)o1 [Lapatinib] (partner 2 µM)
Procedure, shortened: as §1

[4] = compound: O=S(=O)(c1ccccc1)N(CC(F)(F)F)c1ccc(C(O)(C(F)(F)F)C(F)(F)F)cc1 + NC(=O)Nc1cc(-c2cccc(F)c2)sc1C(=O)N[C@H]1CCCNC1 [AZD7762] (partner 0.2 µM)
Procedure, shortened: as §1

[5] = compound: O=S(=O)(c1ccccc1)N(CC(F)(F)F)c1ccc(C(O)(C(F)(F)F)C(F)(F)F)cc1 + Nc1ncn([C@H]2C[C@H](O)[C@@H](CO)O2)c(=O)n1 [Decitabine] (partner 2 µM)
Procedure, shortened: as §1

Cell Line	relative viability ([1]; first compound 0.01 µM)	relative viability ([1]; first compound 0.03162 µM)	relative viability ([1]; first compound 0.1 µM)	relative viability ([1]; first compound 0.3162 µM)	relative viability ([1]; first compound 1 µM)	relative viability ([2]; first compound 0.01 µM)	relative viability ([2]; first compound 0.03162 µM)	relative viability ([2]; first compound 0.1 µM)	relative viability ([2]; first compound 0.3162 µM)	relative viability ([2]; first compound 1 µM)	relative viability ([3]; first compound 0.8 µM)	relative viability ([3]; first compound 2.53 µM)	relative viability ([3]; first compound 8 µM)	relative viability ([4]; first compound 0.8 µM)	relative viability ([4]; first compound 2.53 µM)	relative viability ([4]; first compound 8 µM)	relative viability ([5]; first compound 0.8 µM)	relative viability ([5]; first compound 2.53 µM)	relative viability ([5]; first compound 8 µM)
HCC-827	1.07	1	1.05	1.03	1.06	0.452	0.417	0.376	0.4	0.419	0.231	0.201	0.217	0.209	0.187	0.178	0.364	0.375	0.269
HOP-62	1.2	1.07	1.05	1.05	1.1	0.346	0.304	0.353	0.39	0.377	1.18	0.812	0.798	0.649	0.517	0.598	0.252	0.193	0.239
LC-2-ad	0.877	0.804	0.941	0.967	0.942	0.433	0.404	0.44	0.485	0.404	1.04	0.876	0.99	0.89	0.779	0.702	0.825	0.803	0.709
LCLC-97TM1	0.928	0.866	0.927	0.9	1.01	0.224	0.22	0.175	0.205	0.172	1.09	0.653	0.71		0.241	0.234		0.22	0.196
LK-2	1.28		1.5	1.17	1.37	0.183		0.164	0.167	0.169	1.13	0.82	0.913	0.488	0.682	0.412	0.333	0.347	0.325
LOU-NH91	0.879	0.94	0.951	0.87	0.976	0.667	0.63	0.669	0.638	0.561	0.859	0.832	0.854	0.801	0.8	0.796	0.846	0.823	0.894
LU99A	0.869	0.798	0.844	0.835	0.733	0.285	0.257	0.258	0.254	0.231	1.11	1.05	0.901	0.459	0.401	0.318	0.876	0.863	0.834
LXF-289	0.985	0.956	0.945	0.996	0.958	0.216	0.199	0.187	0.181	0.199	0.797	0.775	0.758	0.981	0.937	0.974	0.411	0.419	0.429
NCI-H23	0.972	0.728	0.833	1.08	0.978	0.279	0.304	0.394	0.124	0.301	1.24	1.24	1.14	0.22	0.293	0.246	0.292	0.28	0.352
NCI-H322M	1.05	0.815	0.896	0.962	1.02	0.549	0.467	0.443	0.476	0.432	0.684	0.602	0.655	0.542	0.643	0.583	0.685	0.721	0.663
NCI-H358	0.541	0.57	0.623	0.786	0.493	0.0852	0.0922	0.103	0.102	0.101	0.434	0.383	0.417	0.385	0.369	0.371		0.19	0.129
NCI-H460	1	0.894	1.08	1.08	1.08	0.217	0.542	0.392	0.116	0.0669		0.834	0.779	0.571	0.555	0.625	0.681	0.462	0.349
NCI-H596	0.716	0.797	0.818	0.872	0.77	0.837	0.712	0.771	0.834	0.794	0.999	0.828	0.998	1.04	0.946	0.933	1.04	0.899	1.05
NCI-H647	1.29	1.12	1.12	1.27	1.24	0.333	0.0513	0.304	0.269	0.158	1.52	1.17	1.2	0.483	0.388	0.535	0.502	0.437	0.353
NCI-H650	0.989	0.94	1.01	1.07	1.02	0.682	0.695	0.718	0.739	0.603	1.24	0.804	1.12	0.814	1.22	0.996	0.339	0.312	0.288
NCI-H727	1.03	0.94	0.74	1.21	1.01	0.706	0.644	0.498	0.613	0.573	0.844	0.646	0.738	0.549	0.604	0.526	0.922	0.963	0.913
NCI-H838	1.13	0.966	1.06	1.16	1.06	0.308	0.283	0.255	0.258	0.264	1.23	0.947	1.06	0.998	0.894	0.871	0.474	0.46	0.482

Cell Line	relative viability ([1]; first compound 0.01 µM)	relative viability ([1]; first compound 0.03162 µM)	relative viability ([1]; first compound 0.1 µM)	relative viability ([1]; first compound 0.3162 µM)	relative viability ([1]; first compound 1 µM)	relative viability ([2]; first compound 0.01 µM)	relative viability ([2]; first compound 0.03162 µM)	relative viability ([2]; first compound 0.1 µM)	relative viability ([2]; first compound 0.3162 µM)	relative viability ([2]; first compound 1 µM)	relative viability ([3]; first compound 0.8 µM)	relative viability ([3]; first compound 2.53 µM)	relative viability ([3]; first compound 8 µM)	relative viability ([4]; first compound 0.8 µM)	relative viability ([4]; first compound 2.53 µM)	relative viability ([4]; first compound 8 µM)	relative viability ([5]; first compound 0.8 µM)	relative viability ([5]; first compound 2.53 µM)	relative viability ([5]; first compound 8 µM)
NCI-H1355	1.04		1.05	1.02	0.942	0.473		0.532	0.515	0.491	1.04	0.961	0.926	0.789	0.733	0.703	0.354	0.382	0.342
NCI-H1395	0.981	0.902	0.895	0.945	0.824	0.635	0.681	0.749	0.696	0.643	1.1	0.993	1.13	0.319	0.416	0.429	0.712	0.741	0.815
NCI-H1437	1.38	1.21	1.28	1.28	1.25	0.485	0.328	0.384	0.397	0.474	0.861	0.651	0.622	1.08	0.995	0.849	0.609	0.549	0.568
NCI-H1651	0.986	0.723	0.879	0.8	0.823	0.713	0.589	0.755	0.57	0.446	0.9	0.821	0.847	0.471	0.449	0.39	0.793	0.668	0.517
NCI-H1666	0.936	0.891	0.905	1.04	0.935	0.64	0.588	0.59	0.631	0.59	0.725	0.625	0.408	0.806	0.76	0.716	0.697	0.661	0.684
NCI-H1734	0.759	0.746	0.893	0.924	0.804	0.233	0.256	0.247	0.304	0.274	1.24	1.13	0.934	0.617	0.67	0.343	0.524	0.477	0.477
NCI-H1755	0.939	0.973	0.921	0.927	0.936	0.577	0.688	0.514	0.547	0.554	1.15	0.797	1	0.468	0.421	0.485	0.781	0.765	0.829
NCI-H1793	0.654	0.265	0.627	0.748	0.735	0.313	0.344	0.338	0.283	0.291	0.675	0.471	0.522	0.409	0.426	0.246	0.262	0.384	0.4
NCI-H1915	1.14	0.891	1.15	1.11	1.23	0.498	0.406	0.416	0.394	0.427	1.05	0.995	1.02	0.712	0.731	0.682	0.287	0.281	0.29
NCI-H1944	0.966	0.884	0.818	0.92	0.915	0.235	0.25	0.234	0.259	0.242	0.897	0.856	0.951	0.546	0.501	0.581	0.461	0.456	0.483
NCI-H1975	0.975	1	1.02	0.985	0.793	0.834	0.871	0.769	0.718	0.284	1.32	0.99	1.01	0.632	0.519	0.669	0.453	0.545	0.472
NCI-H1993	0.924	0.794	0.789	0.727	0.809	0.649	0.582	0.558	0.573	0.605	0.813	0.613	0.849	0.69	0.657	0.774	0.515	0.563	0.579
NCI-H2085	0.866	0.766	0.78	1.11	0.94	0.763	0.775	0.78	0.712	0.641	0.759	0.677	0.65	0.941	0.799	0.913	0.508	0.539	0.501
NCI-H2087	0.985	1.01	1.13	1.24	0.982	0.254	0.19	0.214	0.228	0.217	0.922	0.988	0.994	1.4	1.31	1.31	0.305	0.327	0.301
NCI-H2126	1.58	0.914	1.26	1.19	1.01	0.867	0.841	0.781	0.749	0.75	0.868	0.791	0.905	1.19	1.1	0.999	0.655	0.573	0.533
NCI-H2170	0.929	0.925	0.98	1.11	0.985	0.689	0.933	0.663	0.804	0.679	0.276	0.299	0.288	0.994	0.817	0.961	0.496	0.439	0.475
